Experimental data as given in ChEMBL document CHEMBL1201862, “PubChem BioAssay data set” (2004).
Active and inactive are the calls of the source.

Tests used:
[1] = biological target: T1, DNA repair and recombination protein RAD54-like (Homo sapiens, UniProt Q92698); assay: RAD54 Holliday junction migration blockers – biochemical, fluorescence, cherry-picked samples, dose series, confirmation (AID 651657); format: functional
T1 sequence (Q92698 whole entry): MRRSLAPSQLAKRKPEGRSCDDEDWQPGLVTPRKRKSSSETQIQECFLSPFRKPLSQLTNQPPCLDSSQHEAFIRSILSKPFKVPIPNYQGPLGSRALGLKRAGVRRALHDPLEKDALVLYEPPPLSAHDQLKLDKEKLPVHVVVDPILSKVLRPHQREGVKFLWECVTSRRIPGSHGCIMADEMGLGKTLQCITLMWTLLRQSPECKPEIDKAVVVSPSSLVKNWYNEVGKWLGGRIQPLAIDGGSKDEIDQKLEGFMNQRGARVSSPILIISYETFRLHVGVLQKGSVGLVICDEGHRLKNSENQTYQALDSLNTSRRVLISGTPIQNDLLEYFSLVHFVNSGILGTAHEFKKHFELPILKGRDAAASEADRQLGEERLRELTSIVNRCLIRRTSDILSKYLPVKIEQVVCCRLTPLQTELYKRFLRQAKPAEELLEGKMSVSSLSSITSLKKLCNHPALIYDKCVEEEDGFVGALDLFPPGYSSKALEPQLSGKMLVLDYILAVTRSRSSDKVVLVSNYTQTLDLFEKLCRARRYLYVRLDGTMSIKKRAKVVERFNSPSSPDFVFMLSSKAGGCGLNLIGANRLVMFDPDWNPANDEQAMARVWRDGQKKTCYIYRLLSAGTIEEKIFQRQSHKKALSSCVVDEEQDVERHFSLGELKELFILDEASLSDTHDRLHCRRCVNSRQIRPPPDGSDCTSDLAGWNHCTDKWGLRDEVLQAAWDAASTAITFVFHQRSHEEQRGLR

[2] = biological target: T2, Galanin receptor type 3 (Homo sapiens, UniProt O60755); assay: Fluorescence-based cell-based primary high throughput dose response assay to identify antagonists of the Galanin Receptor 3 (GalR3).; format: functional
T2 sequence (O60755 whole entry): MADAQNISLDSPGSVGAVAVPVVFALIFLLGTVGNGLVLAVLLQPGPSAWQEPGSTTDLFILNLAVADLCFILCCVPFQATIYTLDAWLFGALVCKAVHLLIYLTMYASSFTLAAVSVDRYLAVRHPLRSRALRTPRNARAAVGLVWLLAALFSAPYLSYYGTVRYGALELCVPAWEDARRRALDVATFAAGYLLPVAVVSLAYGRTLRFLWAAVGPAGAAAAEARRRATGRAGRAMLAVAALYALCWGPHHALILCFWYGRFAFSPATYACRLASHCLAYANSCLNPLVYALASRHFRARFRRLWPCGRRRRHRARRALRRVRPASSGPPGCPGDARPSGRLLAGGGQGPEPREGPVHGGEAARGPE

[3] = cells; format: functional, cell-based; conditions: HEK-CNG
[4] = biological target: T3, Corticotropin-releasing factor receptor 2/Corticotropin-releasing factor-binding protein (Homo sapiens, UniProt P24387+Q13324); assay: Dose Response confirmation of uHTS hits for small molecule antagonists of the CRF-binding protein and CRF-R2 receptor complex.; format: functional; conditions: read-out: IC50_Mean
T3 sequence (Q13324 whole entry): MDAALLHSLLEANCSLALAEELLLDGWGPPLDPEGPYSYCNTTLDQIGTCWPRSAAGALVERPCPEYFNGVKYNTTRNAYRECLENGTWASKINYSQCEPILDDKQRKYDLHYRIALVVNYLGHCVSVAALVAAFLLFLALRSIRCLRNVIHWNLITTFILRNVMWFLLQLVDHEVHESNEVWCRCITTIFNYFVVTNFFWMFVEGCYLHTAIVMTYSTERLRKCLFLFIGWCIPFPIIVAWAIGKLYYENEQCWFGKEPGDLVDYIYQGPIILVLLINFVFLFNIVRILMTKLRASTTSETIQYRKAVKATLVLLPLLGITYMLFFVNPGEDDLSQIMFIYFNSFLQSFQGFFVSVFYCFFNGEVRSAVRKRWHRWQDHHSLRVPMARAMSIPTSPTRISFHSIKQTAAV
T3 sequence (P24387 whole entry): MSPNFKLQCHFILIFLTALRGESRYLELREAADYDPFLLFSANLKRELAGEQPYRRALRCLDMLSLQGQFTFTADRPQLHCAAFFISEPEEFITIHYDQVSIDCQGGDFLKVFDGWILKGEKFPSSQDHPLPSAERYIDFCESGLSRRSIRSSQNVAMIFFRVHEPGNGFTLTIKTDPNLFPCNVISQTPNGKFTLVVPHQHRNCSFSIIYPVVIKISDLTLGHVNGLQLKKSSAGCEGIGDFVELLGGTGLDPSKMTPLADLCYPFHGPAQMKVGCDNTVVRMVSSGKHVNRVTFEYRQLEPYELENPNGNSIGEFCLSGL

[5] = biological target: T3, Corticotropin-releasing factor receptor 2/Corticotropin-releasing factor-binding protein; assay: activators of CRF receptor 2 with binding protein – uHTS hits, confirmation (AID 602473); format: functional; conditions: read-out: EC50_Mean
[6] = biological target: Beta-galactosidase (Escherichia coli, UniProt Q8VNN2); assay: Dose response counterscreen for EBI2 assay utilizing the enzyme, b-galactosidase.; format: functional
Chain of Beta-galactosidase (Q8VNN2 whole entry): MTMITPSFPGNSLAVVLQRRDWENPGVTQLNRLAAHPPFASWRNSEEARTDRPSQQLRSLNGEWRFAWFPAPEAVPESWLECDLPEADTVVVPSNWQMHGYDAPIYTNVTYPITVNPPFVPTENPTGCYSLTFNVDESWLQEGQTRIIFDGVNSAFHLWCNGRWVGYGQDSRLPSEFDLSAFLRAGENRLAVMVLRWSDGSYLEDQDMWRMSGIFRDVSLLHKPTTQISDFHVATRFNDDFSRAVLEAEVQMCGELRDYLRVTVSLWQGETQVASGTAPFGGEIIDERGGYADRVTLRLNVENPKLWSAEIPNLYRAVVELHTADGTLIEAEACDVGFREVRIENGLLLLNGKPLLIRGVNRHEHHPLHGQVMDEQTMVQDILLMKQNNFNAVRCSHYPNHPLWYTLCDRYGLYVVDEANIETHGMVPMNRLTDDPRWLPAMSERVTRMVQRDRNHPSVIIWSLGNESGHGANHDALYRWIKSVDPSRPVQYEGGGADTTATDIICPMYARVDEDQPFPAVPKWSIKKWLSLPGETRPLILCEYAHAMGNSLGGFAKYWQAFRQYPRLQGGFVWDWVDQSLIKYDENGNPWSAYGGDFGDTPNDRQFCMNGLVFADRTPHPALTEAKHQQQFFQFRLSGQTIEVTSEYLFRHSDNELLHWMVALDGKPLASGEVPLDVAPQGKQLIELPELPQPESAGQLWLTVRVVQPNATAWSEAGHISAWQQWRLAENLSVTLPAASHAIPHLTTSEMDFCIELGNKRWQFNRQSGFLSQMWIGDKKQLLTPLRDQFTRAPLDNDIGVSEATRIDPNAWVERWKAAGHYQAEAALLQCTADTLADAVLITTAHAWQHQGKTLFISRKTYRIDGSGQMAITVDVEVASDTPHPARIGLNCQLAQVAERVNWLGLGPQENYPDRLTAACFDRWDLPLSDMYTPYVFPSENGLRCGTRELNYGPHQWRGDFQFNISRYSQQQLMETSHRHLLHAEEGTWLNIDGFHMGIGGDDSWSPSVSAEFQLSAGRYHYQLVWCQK

[7] = biological target: Luciferin 4-monooxygenase (Photinus pyralis, UniProt P08659); assay: inhibition of purified Photinus pyralis luciferase – biochemical, luminescence, dose response (AID 1891)
Chain of Luciferin 4-monooxygenase (P08659 whole entry): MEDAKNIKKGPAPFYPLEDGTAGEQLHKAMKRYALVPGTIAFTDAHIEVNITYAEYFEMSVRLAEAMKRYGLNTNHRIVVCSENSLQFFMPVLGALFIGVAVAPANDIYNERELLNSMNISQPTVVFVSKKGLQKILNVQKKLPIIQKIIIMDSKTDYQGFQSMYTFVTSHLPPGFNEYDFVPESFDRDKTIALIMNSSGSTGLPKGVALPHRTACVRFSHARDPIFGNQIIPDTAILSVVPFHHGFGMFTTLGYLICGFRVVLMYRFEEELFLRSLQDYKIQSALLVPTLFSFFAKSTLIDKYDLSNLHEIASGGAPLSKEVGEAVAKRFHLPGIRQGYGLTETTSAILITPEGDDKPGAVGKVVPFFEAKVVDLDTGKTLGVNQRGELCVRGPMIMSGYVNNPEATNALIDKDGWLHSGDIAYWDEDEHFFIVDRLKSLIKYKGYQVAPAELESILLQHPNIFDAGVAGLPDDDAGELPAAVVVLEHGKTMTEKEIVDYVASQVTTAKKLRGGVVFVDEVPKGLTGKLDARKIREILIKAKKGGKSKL

[8] = Luminescence Cell-Based Dose Confirmation HTS to Identify Inhibitors of Platelet Dense Granule Release. [Related pubchem assays: 1663 (Primary HTS), 1678 (Summary of Project)]; format: functional
[9] = system: INS1; assay: INS-1E survival protection against cytokine death – cell-based, luminescence, retest, dose response (AID 449756); format: functional; conditions: Rattus norvegicus;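 also: cell death triggered by IL-1 beta plus TNF-alpha plus IFN-gamma mixture; protective hits raise ATP signal compared with cytokine alone wells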
[10] = biological target: T4, Probable nicotinate-nucleotide adenylyltransferase (Staphylococcus aureus (strain N315), UniProt P65502); format: functional, Staphylococcus aureus subsp. aureus N315;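 as to IC50 Mean: confirmatory dose-response retesting of NadD inhibitor hits first found in an ultra-high-throughput screen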
T4 sequence (P65502 whole entry): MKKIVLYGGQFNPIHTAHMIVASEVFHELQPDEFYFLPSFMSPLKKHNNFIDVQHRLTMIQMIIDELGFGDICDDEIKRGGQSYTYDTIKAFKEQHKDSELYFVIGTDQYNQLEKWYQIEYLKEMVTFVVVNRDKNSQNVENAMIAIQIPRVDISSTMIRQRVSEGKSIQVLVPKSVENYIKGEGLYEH

[11] = biological target: T4, Probable nicotinate-nucleotide adenylyltransferase; format: functional, Staphylococcus aureus subsp. aureus N315; conditions: read-out: IC50_Mean
[12] = biological target: T5, Fatty acid synthase (Homo sapiens, UniProt P49327); assay: inhibition of human FAS-TE enzyme activity – biochemical, endpoint fluorescence intensity, uHTS hits, dose response (AID 624327); format: functional;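 also: fluorescence from hydrolysis of an O-methyl fluorescein acyl ester substrate by the enzyme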
T5 sequence (P49327 whole entry): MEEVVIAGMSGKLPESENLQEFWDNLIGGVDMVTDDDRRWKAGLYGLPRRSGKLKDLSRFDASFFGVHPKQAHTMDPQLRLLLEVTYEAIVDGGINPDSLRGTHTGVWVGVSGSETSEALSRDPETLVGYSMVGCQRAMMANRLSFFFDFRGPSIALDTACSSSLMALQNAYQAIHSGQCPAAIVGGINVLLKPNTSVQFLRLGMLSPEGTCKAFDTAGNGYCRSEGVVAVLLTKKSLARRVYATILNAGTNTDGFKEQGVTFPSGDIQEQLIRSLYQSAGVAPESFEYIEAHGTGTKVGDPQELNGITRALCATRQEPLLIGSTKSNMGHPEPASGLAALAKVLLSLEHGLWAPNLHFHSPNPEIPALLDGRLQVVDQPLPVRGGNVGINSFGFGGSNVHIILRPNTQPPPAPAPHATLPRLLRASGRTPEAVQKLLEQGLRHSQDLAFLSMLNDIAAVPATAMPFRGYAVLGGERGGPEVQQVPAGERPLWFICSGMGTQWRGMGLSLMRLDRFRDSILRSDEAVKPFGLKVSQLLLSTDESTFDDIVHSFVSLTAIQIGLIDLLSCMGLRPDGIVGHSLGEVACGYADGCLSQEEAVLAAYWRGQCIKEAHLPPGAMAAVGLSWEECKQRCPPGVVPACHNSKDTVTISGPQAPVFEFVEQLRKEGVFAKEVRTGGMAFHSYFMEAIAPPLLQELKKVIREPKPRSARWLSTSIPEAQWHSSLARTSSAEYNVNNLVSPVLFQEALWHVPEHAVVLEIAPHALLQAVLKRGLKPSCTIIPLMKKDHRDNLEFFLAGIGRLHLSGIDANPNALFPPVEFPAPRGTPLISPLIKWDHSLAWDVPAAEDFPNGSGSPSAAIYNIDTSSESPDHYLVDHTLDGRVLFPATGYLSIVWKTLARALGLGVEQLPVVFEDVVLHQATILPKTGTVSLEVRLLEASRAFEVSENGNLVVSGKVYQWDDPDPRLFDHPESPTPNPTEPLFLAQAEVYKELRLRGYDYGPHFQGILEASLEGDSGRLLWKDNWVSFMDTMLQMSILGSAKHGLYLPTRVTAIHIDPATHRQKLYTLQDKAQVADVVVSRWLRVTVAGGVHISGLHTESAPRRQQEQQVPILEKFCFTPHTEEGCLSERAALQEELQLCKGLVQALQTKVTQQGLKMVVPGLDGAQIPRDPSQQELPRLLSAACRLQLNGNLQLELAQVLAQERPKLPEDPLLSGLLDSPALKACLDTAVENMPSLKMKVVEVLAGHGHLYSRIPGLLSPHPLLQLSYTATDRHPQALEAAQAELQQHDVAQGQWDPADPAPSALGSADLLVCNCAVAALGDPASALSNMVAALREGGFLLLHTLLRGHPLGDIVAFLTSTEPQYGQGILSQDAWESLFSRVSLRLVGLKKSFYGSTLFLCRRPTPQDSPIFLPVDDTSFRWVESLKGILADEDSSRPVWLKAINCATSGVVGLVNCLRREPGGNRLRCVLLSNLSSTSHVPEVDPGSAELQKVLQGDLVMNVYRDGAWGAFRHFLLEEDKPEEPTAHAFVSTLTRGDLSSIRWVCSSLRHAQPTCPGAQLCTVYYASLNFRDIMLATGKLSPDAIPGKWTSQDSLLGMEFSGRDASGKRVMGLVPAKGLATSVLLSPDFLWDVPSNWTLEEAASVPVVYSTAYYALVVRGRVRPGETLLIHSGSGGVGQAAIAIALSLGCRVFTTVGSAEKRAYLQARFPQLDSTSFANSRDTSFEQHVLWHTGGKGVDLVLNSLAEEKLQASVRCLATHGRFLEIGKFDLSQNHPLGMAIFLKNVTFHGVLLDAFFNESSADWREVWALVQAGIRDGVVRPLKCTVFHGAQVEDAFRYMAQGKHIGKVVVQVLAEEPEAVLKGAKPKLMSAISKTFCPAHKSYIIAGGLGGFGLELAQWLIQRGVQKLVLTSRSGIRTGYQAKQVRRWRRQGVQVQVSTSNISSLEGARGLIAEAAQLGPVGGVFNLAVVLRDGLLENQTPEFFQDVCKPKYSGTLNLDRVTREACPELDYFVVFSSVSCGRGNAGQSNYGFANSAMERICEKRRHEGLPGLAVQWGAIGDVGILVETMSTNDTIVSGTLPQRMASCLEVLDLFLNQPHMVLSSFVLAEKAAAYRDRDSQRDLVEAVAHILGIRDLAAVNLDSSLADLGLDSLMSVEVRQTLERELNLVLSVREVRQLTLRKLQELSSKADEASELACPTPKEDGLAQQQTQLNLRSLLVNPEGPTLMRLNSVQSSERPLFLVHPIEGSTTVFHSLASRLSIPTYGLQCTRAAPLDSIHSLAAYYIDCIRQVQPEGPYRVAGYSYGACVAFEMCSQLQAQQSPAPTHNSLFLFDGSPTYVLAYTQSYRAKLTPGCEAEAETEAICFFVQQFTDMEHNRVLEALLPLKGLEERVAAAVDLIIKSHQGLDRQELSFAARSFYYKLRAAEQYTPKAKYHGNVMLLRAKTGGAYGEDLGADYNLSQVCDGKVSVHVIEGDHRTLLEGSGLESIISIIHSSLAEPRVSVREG

[13] = biological target: T5, Fatty acid synthase; assay: inhibition of human FAS-TE enzyme activity – biochemical, kinetic fluorescence intensity, dose response (AID 624326); format: functional;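 also: rate of fluorescence rise from hydrolysis of a fluorogenic O-methyl fluorescein ester substrate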
[14] = biological target: T6, Long-chain-fatty-acid--AMP ligase FadD28 (Mycobacterium tuberculosis, UniProt P9WQ59); assay: Fluorescence polarization aasay to screen for inhibitors that compete for the binding of FadD28 to a bisubstrate Measured in Biochemical System Using Plate Reader - 2147-01_Inhibitor_Dose_CherryPick_Activity.; format: functional, Mycobacterium tuberculosis H37Rv
T6 sequence (P9WQ59 whole entry): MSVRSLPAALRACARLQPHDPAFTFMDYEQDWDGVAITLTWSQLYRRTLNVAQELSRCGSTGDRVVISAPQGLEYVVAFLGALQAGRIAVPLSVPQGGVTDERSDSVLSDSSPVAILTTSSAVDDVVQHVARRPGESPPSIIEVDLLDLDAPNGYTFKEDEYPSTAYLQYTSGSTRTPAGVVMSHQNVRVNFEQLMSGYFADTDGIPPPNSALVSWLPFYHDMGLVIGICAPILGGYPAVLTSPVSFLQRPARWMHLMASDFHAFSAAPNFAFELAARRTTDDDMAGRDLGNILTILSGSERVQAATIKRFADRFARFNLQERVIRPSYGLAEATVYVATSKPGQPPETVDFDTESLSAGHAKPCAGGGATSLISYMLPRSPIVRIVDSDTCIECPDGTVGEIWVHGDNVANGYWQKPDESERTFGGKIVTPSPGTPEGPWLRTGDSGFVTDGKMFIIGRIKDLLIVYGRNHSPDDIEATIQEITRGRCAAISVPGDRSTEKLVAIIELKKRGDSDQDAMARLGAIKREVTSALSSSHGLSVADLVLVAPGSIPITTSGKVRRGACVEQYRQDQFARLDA

[15] = biological target: T7, RNA-binding protein pos-1 (Caenorhabditis elegans, UniProt G5EF15); assay: disruptors of C. elegans POS-1 RNA interaction – biochemical, fluorescence polarization, dose response (AID 1964);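 also: purified POS-1 fused to maltose binding protein made in E. coli; potency of compounds blocking POS-1 binding to fluorescent RNA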
T7 sequence (G5EF15 whole entry): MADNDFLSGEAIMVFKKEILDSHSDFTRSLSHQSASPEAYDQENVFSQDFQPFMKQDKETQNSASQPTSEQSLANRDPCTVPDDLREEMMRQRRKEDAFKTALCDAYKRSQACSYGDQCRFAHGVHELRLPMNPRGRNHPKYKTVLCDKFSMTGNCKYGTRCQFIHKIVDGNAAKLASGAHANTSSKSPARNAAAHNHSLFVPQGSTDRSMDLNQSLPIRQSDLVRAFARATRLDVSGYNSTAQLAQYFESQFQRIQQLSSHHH

[16] = system: Streptococcus sp. 'group A'; assay: Streptococcus pyogenes SK(-)GAS viability under kanamycin – luminescence, BacTiterGlo, confirmation, counter-screen for streptokinase expression inhibitor project, dose response (AID 1900); format: functional, organism-based
[17] = biological target: T8, Zinc finger protein mex-5 (Caenorhabditis elegans, UniProt Q9XUB2); assay: potency of MEX-5 RNA-binding blockers – biochemical, C. elegans, fluorescence polarization, dose response (AID 1960)
T8 sequence (Q9XUB2 whole entry): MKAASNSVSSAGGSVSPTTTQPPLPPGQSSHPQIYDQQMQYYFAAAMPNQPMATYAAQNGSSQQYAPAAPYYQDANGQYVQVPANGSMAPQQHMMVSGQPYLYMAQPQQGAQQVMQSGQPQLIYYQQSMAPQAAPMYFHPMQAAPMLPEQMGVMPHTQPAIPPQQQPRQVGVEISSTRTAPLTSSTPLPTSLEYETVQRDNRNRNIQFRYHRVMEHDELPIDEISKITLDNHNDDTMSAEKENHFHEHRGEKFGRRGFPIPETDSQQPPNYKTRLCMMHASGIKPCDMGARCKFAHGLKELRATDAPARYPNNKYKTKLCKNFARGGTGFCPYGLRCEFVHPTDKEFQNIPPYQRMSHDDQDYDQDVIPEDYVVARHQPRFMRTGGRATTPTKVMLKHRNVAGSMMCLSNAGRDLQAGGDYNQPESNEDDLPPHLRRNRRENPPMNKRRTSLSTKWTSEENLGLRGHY

[18] = system: Streptococcus; assay: GAS UMAA2166 growth inhibition – luminescence, BacTiterGlo, counter-screen for streptokinase expression inhibitor project, dose response (AID 1915); format: functional, organism-based;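 also: potency for reduction of bacterial viability or growth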
[19] = HEK-293T viability loss after treatment – luminescence, T-cell screen hits, cytotoxicity control for TCR NF-kB inhibitor project, dose response (AID 489026); format: functional, cell-based;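 also: cells exposed to compound about 14 hours before the viability readout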
[20] = reduction of Shn3 3'UTR-driven luciferase in osteoblasts – cell-based, Clone20 osteoblasts, firefly luciferase, cherry-picked, dose response (AID 624132); format: functional;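 also: firefly luciferase luminescence from reporter carrying the Shn3 3'UTR in osteoblasts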
[21] = loss of viability in HepG2 cells – cell-based, CellTiter-Glo, cherry-picked, cytotoxicity control for Shn3 inhibitor project, dose response (AID 624134); format: functional
[22] = non-specific 3'UTR reporter inhibition in Clone20-Shn3RL – cell-based, Renilla luciferase, cherry-picked, counter-screen for Shn3 inhibitor project, dose response (AID 624133); format: functional
[23] = cells; format: functional, cell-based
[24] = biological target: T9, Nuclear receptor subfamily 0 group B member 1 (Homo sapiens, UniProt P51843); format: functional, cell-based;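 also: HEK293T cells transfected with SF-1 and DAX-1 plus StAR promoter luciferase reporter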
T9 sequence (P51843 whole entry): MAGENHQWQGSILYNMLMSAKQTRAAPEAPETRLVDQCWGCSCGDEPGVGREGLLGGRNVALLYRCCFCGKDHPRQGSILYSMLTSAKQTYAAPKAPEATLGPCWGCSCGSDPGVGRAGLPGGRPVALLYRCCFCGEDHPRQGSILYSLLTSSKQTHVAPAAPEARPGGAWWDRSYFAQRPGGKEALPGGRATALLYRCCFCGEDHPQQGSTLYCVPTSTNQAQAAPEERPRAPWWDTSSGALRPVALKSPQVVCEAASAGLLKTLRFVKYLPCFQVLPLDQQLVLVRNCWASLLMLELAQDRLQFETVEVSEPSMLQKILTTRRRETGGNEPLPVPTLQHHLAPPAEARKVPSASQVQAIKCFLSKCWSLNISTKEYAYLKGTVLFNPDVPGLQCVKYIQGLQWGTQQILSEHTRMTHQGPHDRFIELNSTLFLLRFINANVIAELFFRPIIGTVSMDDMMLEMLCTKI

## Cc1ccc(-c2nc(NCCCO)c3ccccc3n2)cc1
[1]
  AC50: 79.6 µM (active)

## COc1ccc(-n2c(C)cc(C(=O)COC(=O)Cn3cnc4ccccc43)c2C)cc1
[2]
  IC50: 0.762 µM (active)
[3]
  EC50: > 29.9 µM (inactive)

## COc1ccc(N2CCN(C(=O)c3cc(=O)c4cc(C)c(C)cc4o3)CC2)cc1
[4]
  IC50: > 47.1 µM (inactive)
[5]
  EC50: > 53 µM (inactive)
[6]
  IC50: > 80 µM (inactive)

## O=C(c1cc2cc(F)ccc2[nH]1)N1CCN(Cc2ccc3c(c2)OCO3)CC1
[7]
  EC50: > 112 µM (not active)
[8]
  EC50: > 112 µM (not active)
[6]
  IC50: > 80 µM (inactive)

## COc1ccc(/C=C/C(=O)N2CCN(S(=O)(=O)/C=C/c3ccccc3)CC2)cc1OC
[6]
  IC50: > 80 µM (inactive)

## Cc1ccc(S(=O)(=O)Nc2ccccc2C(=O)Nc2nc(-c3ccc(F)cc3)cs2)cc1
[9]
  AC50: 2.97 µM (active)
[10]
  IC50: 7.69 µM (active)
[11]
  IC50: 62.2 µM (active)
[12]
  IC50: 9.65 µM (active)
[13]
  IC50: 10.7 µM (active)
[2]
  IC50: 1.44 µM (active)
[3]
  EC50: > 29.9 µM (inactive)

## C/C(Cl)=C/Cn1c(SC(C)C)nc2c1c(=O)[nH]c(=O)n2C
[14]
  AC50: > 100 µM (inactive)

## Cc1ccc2sc(NNC(=O)c3cc(=O)c4ccccc4o3)nc2c1C
[15]
  EC50: > 300 µM (not active)
[16]
  EC50: 0.744 µM (active)
[17]
  EC50: > 300 µM (inconclusive)
[18]
  EC50: 2.5 µM (active)
[10]
  IC50: 4.17 µM (active)
[11]
  IC50: 17.7 µM (active)

## Cc1ccc(Oc2ccc(OCC(=O)Nc3ccncc3)cc2)cc1
[19]
  IC50: > 80 µM (inactive)
[20]
  AC50: 1.55 µM (active)
[21]
  AC50: 4.76 µM (active)
[22]
  AC50: < 1 µM (active)
[2]
  IC50: 0.158 µM (active)
[3]
  EC50: > 29.9 µM (inactive)

## S=C(NCCc1ccccc1)Nc1ncccn1
[23]
  IC50: > 67.5 µM (inactive)
[24]
  IC50: > 67.5 µM (inactive)

## CCc1nnc(NS(=O)(=O)c2ccc(/N=C/c3c(C)nn(-c4ccc(Cl)cc4)c3O)cc2)s1
[10]
  IC50: 6.87 µM (active)
[11]
  IC50: 25.5 µM (active)
